From patent US7232912B2, “Indazole compounds, pharmaceutical compositions, and methods for mediating or inhibiting cell proliferation” (Agouron Pharmaceuticals, Inc., priority 2000, dated 2007) come the findings set out here.

In one test the target is T1, FGFR1 tyrosine kinase (Homo sapiens, UniProt P11362, C488A/C584S/L457V).
T1 construct: the cytosolic domain of FGFR1 tyrosine kinase (amino acids 456–766); made in house; host or cells: Sf9 insect cells (baculovirus)
The test can be described thus: Inhibition of phosphorylated FGF receptor tyrosine kinase activity. The class given is biochemical. As to conditions: for inhibition at 1 µM: read-out: FGF % Inhib. at 1 μM. As to the method: Inhibition of Phosphorylated FGF Receptor and LCK Tyrosine Kinase Activity
Cloning, expression and purification of the cytosolic domain of FGFR1 tyrosine kinase (amino acids 456–766) containing three amino acid substitutions (L457V, C488A, and C584S) were conducted as previously described (Mohammadi, M., Schlessinger, J., & Hubbard, S. R. (1996) Cell 86, 577–587). This domain was expressed in Sf9 insect cells using a baculovirus expression vector, and protein was purified using conventional techniques. The LCK tyrosine kinase was expressed in insect cells as an N-terminal deletion starting from amino acid 223 to the end of the protein at amino acid 509. The N-terminus of the protein also had two amino acid substitutions, P223M and C 224D. Kinases were purified using conventional chromatographic methods.
Tyrosine kinase activity was measured using a coupled, continuous spectrophotometric assay, in which production of phosphorylated poly(Glu, Tyr; 4:1) substrate and ADP is coupled to the pyruvate kinase-catalyzed transfer of a phosphate from phosphoenolpyruvate to ADP, with generation of pyruvate and regeneration of ATP. Pyruvate production is in turn coupled to the lactate dehydrogenase-catalyzed reduction of pyruvate to form lactate, with concomitant conversion of NADH to NAD+. Loss of NADH is monitored by measuring absorbance at 340 nm (see e.g., Technikova-Dobrova et al., “Spectrophotometric determination of functional characteristics of protein kinases with coupled enzymatic assay,” FEBS Letters, vol. 292 (1991), pp. 69–72). Enzyme activity was measured in the presence of 200 mM HEPES (pH 7.5), 2 mM phosphoenolpyruvate, 0.3 mM NADH, 20 mM MgCl2, 100 μM ATP, 5 mM DTT, 5.1 or 25 mM poly (Glu,Tyr) 4:1 for P-FGF or P-LCK assays, respectively, and 15 units/mL each of pyruvate kinase and lactate dehydrogenase. Phosphorylated FGF receptor kinase was present at 100 nM and phosphorylated LCK kinase was present at 50 nM. Assays were performed under initial rate conditions at 37° C., and rates were corrected for any background rate measured in the absence of enzyme. Percent inhibition was calculated relative to control enzyme assayed in the presence of 2% (v/v) DMSO.

A further test deals with T2, CDK2/cyclin A (Homo sapiens, UniProt P24941).
T2 construct: made in house; host or cells: CDK2: insect cells (baculovirus); cyclin A: E. coli
Nature of the test: Inhibition of CDK2/Cyclin A Retinoblastoma Kinase Activity. The test is classed as biochemical. As to conditions: apparent Ki. How it is done: (§1) Cyclin-dependent kinase activity was measured by quantifying the enzyme-catalyzed, time-dependent incorporation of radioactive phosphate from [^32P]ATP or [^33P]ATP into a protein substrate. Unless noted otherwise, assays were performed in 96-well plates in a total volume of 50 μL, in the presence of 10 mM HEPES (N-[2-hydroxyethyl]piperazine-N′-[2-ethanesulfonic acid]) (pH 7.4), 10 mM MgCl2, 25 μM adenosine triphosphate (ATP), 1 mg/mL ovalbumin, 5 μg/mL leupeptin, 1 mM dithiothreitol, 10 mM beta-glycerophosphate, 0.1 mM sodium vanadate, 1 mM sodium fluoride, 2.5 mM ethylene glycol-bis(β-aminoethyl ethKer)-N,N,N′N′-tetraacetic acid (EGTA), 2% (v/v) dimethylsulfoxide, and 0.03–0.4 μCi [^32/33P]ATP per reaction. Reactions were initiated with appropriate enzyme, incubated at 30° C., and terminated after 20 minutes by the addition of ethylenediaminetetraacetic acid (EDTA) to 250 mM. The phosphorylated substrate was then captured on a nitrocellulose or phosphocellulose membrane using a 96-well filtration manifold, and unincorporated radioactivity was removed by repeated washing with 0.85% phosphoric acid. Radioactivity was quantified by exposing the dried membranes to a phosphorimager.
(§2) Apparent Ki values were measured by assaying enzyme activity in the presence of different inhibitor compound concentrations and subtracting the background radioactivity measured in the absence of enzyme. Inhibition data were fit to an equation for competitive inhibition using Kaleidagraph (Synergy Software), or were fit to an equation for competitive tight-binding inhibition using the software KineTic (BioKin, Ltd.).
Inhibition of CDK2/Cyclin A Retinoblastoma Kinase Activity
CDK2 was purified using published methodology (Rosenblatt et al., “Purification and Crystallization of Human Cyclin-dependent Kinase 2,” J. Mol. Biol., vol. 230, 1993, pp. 1317–1319) from insect cells that had been infected with a baculovirus expression vector. […] A complex of CDK2 and proteolyzed cyclin A was prepared and purified by gel filtration. The substrate for this assay was the same Rb substrate fragment used for the CDK4 assays, and the methodology of the CDK2/cyclin A and the CDK4/cyclin D3 assays was essentially the same, except that CDK2 was present at 150 nM or 5 nM. Ki values were measured as described above.

For a further test, the system named is HCT 116 cell line. The test can be described thus: Inhibition of Cell Growth (MTT tetrazolium salt assay). To be noted: Homo sapiens, HCT 116, MTT; for pIC50: 50% inhibition of growth, read-out: HCT 116 IC50; for IC90: read-out: HCT 116 IC90. The test is classed as cell-based. How it is done: Inhibition of Cell Growth: Assessment of Cytotoxicity
Inhibition of cell growth was measured using the tetrazolium salt assay, which is based on the ability of viable cells to reduce 3-(4,5-dimethylthiazol-2-yl)-2,5-[2H]-diphenyltetrazolium bromide (MTT) to formazan (Mossman, Journal of Immunological Methods, vol. 65 (1983), pp. 55–58). The water-insoluble purple formazan product was then detected spectrophotometrically. The HCT 116 cell line was grown in 96-well plates. Cells were plated in the appropriate medium at a volume of 135 μl/well in McCoy's 5A Medium. Plates were incubated for four hours before addition of inhibitor compounds. Different concentrations of inhibitor compounds were added in 0.5% (v/v) dimethylsulfoxide (15 μL/well), and cells were incubated at 37° C. (5% CO2) for four to six days (depending on cell type). At the end of the incubation, MTT was added to a final concentration of 0.2 mg/mL, and cells were incubated for 4 hours more at 37° C. After centrifugation of the plates and removal of medium, the absorbance of the formazan (solubilized in dimethylsulfoxide) was measured at 540 nm. The concentration of inhibitor compound causing 50% inhibition of growth was determined from the linear portion of a semi-log plot of inhibitor concentration versus percentage inhibition. All results were compared to control cells treated only with 0.5% (v/v) dimethylsulfoxide.
(In general: Tetrazolium dyes change colour on reduction, which living cells bring about.)

For another test, the target named is CDK4/cyclin D3 (Homo sapiens, UniProt P11802). The test can be described thus: Inhibition of CDK4/Cyclin D Retinoblastoma Kinase Activity. The class given is biochemical. To be noted: apparent Ki. How it is done: as §1, §2
Inhibition of CDK4/Cyclin D Retinoblastoma Kinase Activity
A complex of human CDK4 and cyclin D3, or a complex of human CDK4 and genetically truncated (1–264) cyclin D3, was purified using traditional biochemical chromatographic techniques from insect cells that had been co-infected with the corresponding baculovirus expression vectors (see e.g., Meijer and Kim, “Chemical Inhibitors of Cyclin-Dependent Kinases,” Methods in Enzymol,. vol. 283 (1997), pp. 113–128.). The enzyme complex (5 or 50 nM) was assayed with 0.3–0.5 μg of purified recombinant retinoblastoma protein fragment (Rb) as a substrate. The engineered Rb fragment (residues 386–928 of the native retinoblastoma protein; 62.3 kDa) contains the majority of the phosphorylation sites found in the native 106-kDa protein, as well as a tag of six histidine residues for ease of purification. Phosphorylated Rb substrate was captured by microfiltration on a nitrocellulose membrane and quantified using a phosphorimager as described above. For measurement of tight-binding inhibitors, the enzyme complex concentration was lowered to 5 nM, and the assay duration was extended to 60 minutes, during which the time-dependence of product formation was linear.

pIC50, pKi: −log10 of the molar value.

Sequence of CDK4/cyclin D3 (P11802 2-303 limits assumed): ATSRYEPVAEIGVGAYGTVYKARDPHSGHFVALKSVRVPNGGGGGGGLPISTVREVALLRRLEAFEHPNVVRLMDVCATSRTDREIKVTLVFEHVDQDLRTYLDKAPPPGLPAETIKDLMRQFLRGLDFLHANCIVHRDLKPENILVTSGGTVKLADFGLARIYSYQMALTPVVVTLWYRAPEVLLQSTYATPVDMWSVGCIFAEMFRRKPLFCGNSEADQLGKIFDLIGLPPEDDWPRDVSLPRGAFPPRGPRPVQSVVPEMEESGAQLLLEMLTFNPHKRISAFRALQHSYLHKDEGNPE
Sequence of CDK4/cyclin D3 (P30281 1-264 limits assumed, further chain): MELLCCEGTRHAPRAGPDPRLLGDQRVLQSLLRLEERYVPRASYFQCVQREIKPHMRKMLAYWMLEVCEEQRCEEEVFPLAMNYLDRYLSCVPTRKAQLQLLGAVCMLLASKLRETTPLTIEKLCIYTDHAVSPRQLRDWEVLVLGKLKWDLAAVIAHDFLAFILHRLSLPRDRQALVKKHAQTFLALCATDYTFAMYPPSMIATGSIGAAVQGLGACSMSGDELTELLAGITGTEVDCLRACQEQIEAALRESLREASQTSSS
T1 sequence (P11362 456-766 L457V/C488A/C584S): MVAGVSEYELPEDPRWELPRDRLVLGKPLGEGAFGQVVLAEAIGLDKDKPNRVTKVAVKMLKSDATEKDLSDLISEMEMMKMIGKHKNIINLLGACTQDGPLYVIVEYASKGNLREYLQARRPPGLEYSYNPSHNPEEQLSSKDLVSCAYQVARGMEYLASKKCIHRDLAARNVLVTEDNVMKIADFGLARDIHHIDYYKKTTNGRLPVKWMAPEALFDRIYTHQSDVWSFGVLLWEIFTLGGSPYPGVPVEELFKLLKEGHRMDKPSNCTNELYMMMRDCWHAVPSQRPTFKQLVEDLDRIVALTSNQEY

With `C(=C\c1n[nH]c2ccc(-c3ccnc4ccccc34)cc12)/c1ccccc1` [Example 17, 4-[3-((E)-Styryl)-1H-indazol-5-yl]-quinoline], at FGFR1 tyrosine kinase, the inhibition at 1 µM was determined as 42.6%. The pKi on CDK2/cyclin A was 5.85. Further, in the test with HCT 116 cell line, the negative logarithm of the IC50 (pIC50) is 5.49 and the IC90 came out at 5000 nM.
With `Clc1cccc2[nH]c(-c3n[nH]c4ccc(-c5cncc6ccccc56)cc34)nc12` [Example 19, 4-[3-(4-Chloro-1H-benzoimidazol-2-yl)-1H-indazol-5-yl]-isoquinoline], the inhibition at 1 µM at FGFR1 tyrosine kinase was determined as 31.3%. The pKi at CDK2/cyclin A was 9.00; at CDK4/cyclin D3, 7.27. Further, the negative-log IC50 (pIC50) with HCT 116 cell line is 6.11. The 90% effect concentration (IC90) with HCT 116 cell line was found to be 1600 nM.
Taken in the same sequence, the figures for `CN1CCN(c2ccc3[nH]c(-c4n[nH]c5ccc(-c6cncc7ccccc67)cc45)nc3c2)CC1` [Example 20, 4-{3-[5-(4-Methyl-piperazin-1-yl)-1H-benzoimidazol-2-yl]-1H-indazol-5-yl}-isoquinoline] were 96.9%, 9.03, 8.68, 7.15 and 400 nM.
For the compound `Cc1c(-c2ccc3[nH]nc(/C=C/c4ccccc4)c3c2)ccc(CCCO)c1O` [Example 22, 6-(3-Hydroxy-propyl)-2-methyl-3-[3-((E)-styryl)-1H-indazol-5-yl]-phenol], the inhibition at 1 µM on FGFR1 tyrosine kinase was 93.5%. Further, the pKi on CDK2/cyclin A was 7.03. The pKi on CDK4/cyclin D3 is 7.82. In the test with HCT 116 cell line, the pIC50 is 5.30 and the IC90 came out at 5000 nM.
As for `Cc1c(O)cccc1-c1ccc2[nH]nc(-c3nc4c(CO)cccc4[nH]3)c2c1` [Example 23, 3-[3-(4Hydroxymethyl-1H-benzoimidazol-2-yl)-1H-indazol-5-yl]-2-methyl-phenol], the figures for the pKi at FGFR1 tyrosine kinase, at CDK2/cyclin A and on CDK4/cyclin D3 were 6.10, 7.39 and 7.19, respectively. Besides, in the test with HCT 116 cell line, the pIC50 is 5.40. Further, the IC90 in the test on HCT 116 cell line turned out to be 5000 nM.
`C(=C\c1n[nH]c2ccc(-c3ccc4ccncc4c3)cc12)/c1ccccc1` [Example 24, 7-[3-((E)Styryl)-1H-indazol-5-yl]-isoquinoline]: the inhibition at 1 µM at FGFR1 tyrosine kinase turned out to be 45.4%. In addition, the pKi on CDK2/cyclin A was 5.96; at CDK4/cyclin D3, 6.16.
Turning to `c1ccc2c(-c3ccc4[nH]nc(-c5nc6ccccc6[nH]5)c4c3)cncc2c1` [Example 25, 4-[3-(1H-Benzoimidazol-2-yl)-1H-indazol-5-yl]-isoquinoline], the pKi on FGFR1 tyrosine kinase was 6.36; on CDK2/cyclin A, 9.00; at CDK4/cyclin D3 it was 8.00. Besides, in the test with HCT 116 cell line, the pIC50 is 6.48. Besides, the IC90 in the test on HCT 116 cell line was determined as 1100 nM.
For the compound `OCCc1cccc2[nH]c(-c3n[nH]c4ccc(-c5cncc6ccccc56)cc34)nc12` [Example 30], at FGFR1 tyrosine kinase, the inhibition at 1 µM was found to be 52.4%. The pKi at CDK2/cyclin A is 9.00. Besides, the pKi on CDK4/cyclin D3 is 7.96. Besides, in the test on HCT 116 cell line, the pIC50 was 6.74 and the IC90 was 620 nM.
Consider `CNCc1cccc2[nH]c(-c3n[nH]c4ccc(-c5cncc6ccccc56)cc34)nc12` [Example 32, [2-(5-Isoquinolin-4-yl-1H-indazol-3-yl)-1H-benzoimidazol-4-yl-methyl]-methyl-amine], for which the inhibition at 1 µM on FGFR1 tyrosine kinase amounted to 29.7%. The pKi on CDK2/cyclin A was 9.60; at CDK4/cyclin D3 it was 9.39. Further, the negative-log IC50 (pIC50) with HCT 116 cell line was 7.07. Besides, the IC90 in the test with HCT 116 cell line amounted to 230 nM.
Taken in the same sequence, the figures for `c1ccc2c(-c3ccc4[nH]nc(-c5nc6c(CN7CCCC7)cccc6[nH]5)c4c3)cncc2c1` [Example 33, 4-[3-(4Pyrrolidin-1-ylmethyl-1H-benzoimidazol-2-yl)-1H-indazol-5-yl]-isoquinoline] were 51.6%, 9.00, 8.96, 7.26 and 160 nM.
Taken in the same sequence, the figures for `c1ccc2c(-c3ccc4[nH]nc(-c5nc6c(CCN7CCCC7)cccc6[nH]5)c4c3)cncc2c1` [Example 34, 4-{3-[4-(2-Pyrrolidin-1-yl-ethyl)-1H-benzoimidazol-2-yl]-1H-indazol-5-yl]-isoquinoline] were 26.9%, 9.00, 7.72, 6.70 and 580 nM.
Taken in the same sequence, the figures for `CC(CO)CNCc1cccc2[nH]c(-c3n[nH]c4ccc(-c5cncc6ccccc56)cc34)nc12` (centres unmarked) [Example 35, 3-{[2-(5-Isoquinolin-4-yl-1H-indazol-3-yl)-1H-benzoimidazol-4-ylmethyl]-amino}-2-methyl-propan-1-ol] were 40.5%, 9.00, 8.49, 6.89 and 370 nM.
Consider `Cc1ccncc1-c1ccc2[nH]nc(/C=C/c3ccccc3)c2c1` [Example 43, 5-(4Methyl-pyridin-3-yl)-3-(E)styryl-1H-indazole], for which, on FGFR1 tyrosine kinase, the inhibition at 1 µM was determined as 59.6%. The pKi at CDK2/cyclin A is 7.54. Also, at CDK4/cyclin D3, the pKi is 7.82. Moreover, in the test with HCT 116 cell line, the pIC50 was 5.72 and the IC90 amounted to 5000 nM.

The term pKi denotes the negative decadic logarithm of the Ki, by convention in mol/L. As a reminder, the pIC50 is the negative decadic logarithm of the IC50, by convention in mol/L. As usually defined, the IC90 is the concentration needed for an effect of 90%.
